Experimental data as given in publication PMC5382913, “Interactions of the periplasmic binding protein CeuE with Fe(III) n-LICAM^4− siderophore analogues of varied linker length” (Scientific Reports, 2017).

Experiments:
WT CeuE = molecular target: T1, WT CeuE (Campylobacter jejuni, UniProt Q0P8Q4); assay: Intrinsic fluorescence quenching titration, wild type CeuE; conditions: 240 nM protein in 40 mM Tris-HCl pH 7.5, 150 mM NaCl; 1:1 binding model; triplicate
T1 sequence (Q0P8Q4 44-330): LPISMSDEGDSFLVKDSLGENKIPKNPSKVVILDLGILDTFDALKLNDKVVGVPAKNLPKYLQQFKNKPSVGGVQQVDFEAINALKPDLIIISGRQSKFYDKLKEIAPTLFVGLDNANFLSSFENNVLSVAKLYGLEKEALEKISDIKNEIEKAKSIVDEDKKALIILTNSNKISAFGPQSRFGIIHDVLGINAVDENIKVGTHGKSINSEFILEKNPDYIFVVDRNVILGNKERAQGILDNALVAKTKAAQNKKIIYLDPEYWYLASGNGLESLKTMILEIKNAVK
Excerpt: (§1) The affinities of CeuE for the four Fe-n-Lic complexes were quantified using intrinsic fluorescence quenching, Table 1, with measurements carried out in triplicate. The data were fitted to a 1:1 binding model and analyzed by non-linear regression. […] An attempt to determine the Kd value of Fe-5-Lic by using a more dilute protein solution was unsuccessful because of the inherent decrease in emission intensity reaching the detection limit of the fluorimeter.
(§2) Fluorescence quenching studies with CeuE were carried out on a Hitachi F-4500 fluorescence spectrophotometer as previously reported.
(§3) A 240 nM solution of CeuE in 40 mM Tris-HCl pH 7.5, 150 mM NaCl was prepared and the concentration verified by both the Bradford method and UV-vis absorbance at 280 nm, using the molar absorbance coefficient predicted by ProtParam (15930 mol^−1 dm^3 cm^−1)[43]. The CeuE solution (2 mL) was titrated stepwise with 16 aliquots of a 12 μM Fe-n-Lic solution resulting in a concentration range of Fe-n-Lic of 0 to 1.19 μM. The observed emission intensity was corrected for photomultiplier tube response and buffer subtracted, then integrated between 310 and 410 nm. The data were normalized and analyzed by nonlinear regression using a one-site binding model in DynaFit[26]. Each system was analyzed in triplicate and the average dissociation constants were calculated as reported previously.

CeuE mutant H227L [1] = molecular target: T2, CeuE mutant H227L (Campylobacter jejuni, UniProt Q0P8Q4, H247L); assay: Intrinsic fluorescence quenching titration, CeuE mutant H227L; conditions: 240 nM protein in 40 mM Tris-HCl pH 7.5, 150 mM NaCl; 1:1 binding model; triplicate
T2 sequence (Q0P8Q4 44-330 H247L): T1 sequence (Q0P8Q4 44-330)
Excerpt: as §1
(§4) The binding studies with wild type CeuE were followed by titrations to determine the ligand affinity of all five mutants. Fe-5-Lic was chosen because of its strong binding to wild type CeuE and because its linker length matches that of natural catecholate siderophores. Mutation of the Fe(III)-coordinating tyrosine led to a drastic drop in binding affinity in both the single (Y228F) and the double mutants (H227L/Y288F and H227A/Y288F), with Kd values above 1 μM. In contrast, the effect of mutating the histidine was less pronounced. […] However, there is an additional entropic contribution to consider.
(§5) Subsequently, titrations were carried out with Fe-4-Lic, Fe-6-Lic and Fe-8-Lic to identify trends in the affinity for mutants H227L and H227A (Fig. 6(b) and (c)) (Table 1). The resulting Kd values show trends similar to that observed for wild type, but with systematically weaker binding.
as §2, §3

CeuE mutant H227A [2] = molecular target: T3, CeuE mutant H227A (Campylobacter jejuni, UniProt Q0P8Q4, H247A); assay: Intrinsic fluorescence quenching titration, CeuE mutant H227A; conditions: 240 nM protein in 40 mM Tris-HCl pH 7.5, 150 mM NaCl; 1:1 binding model; triplicate
T3 sequence (Q0P8Q4 44-330 H247A): T1 sequence (Q0P8Q4 44-330)
Excerpt: as §1, §4, §5, §2, §3

CeuE single mutant Y228F = molecular target: T4, CeuE single mutant Y228F (Campylobacter jejuni, UniProt Q0P8Q4, Y308F); assay: Intrinsic fluorescence quenching titration, CeuE single mutant Y228F; assay type: binding
T4 sequence (Q0P8Q4 44-330 Y308F): T1 sequence (Q0P8Q4 44-330)
Description: as §4, §2
as §3, with “The observed emission intensity was corrected for photomultiplier tube response and buffer subtracted, then integrated between 310 and 410 nm.” left out

[3] = molecular target: T5, CeuE double mutant H227L/Y288F (Campylobacter jejuni, UniProt Q0P8Q4, H247L/Y308F); assay: Intrinsic fluorescence quenching titration, CeuE double mutant H227L/Y288F; assay type: binding
T5 sequence (Q0P8Q4 44-330 H247L/Y308F): T1 sequence (Q0P8Q4 44-330)
Description: as §4, §2
as §3, with “The observed emission intensity was corrected for photomultiplier tube response and buffer subtracted, then integrated between 310 and 410 nm.” left out

[4] = molecular target: T6, CeuE double mutant H227A/Y288F (Campylobacter jejuni, UniProt Q0P8Q4, H247A/Y308F); assay: Intrinsic fluorescence quenching titration, CeuE double mutant H227A/Y288F; assay type: binding
T6 sequence (Q0P8Q4 44-330 H247A/Y308F): T1 sequence (Q0P8Q4 44-330)
Description: as §4, §2
as §3, with “The observed emission intensity was corrected for photomultiplier tube response and buffer subtracted, then integrated between 310 and 410 nm.” left out

CeuE Y228F mutants = assay: Circular dichroism of LMCT band, Y228F mutants; assay type: binding, Campylobacter jejuni; conditions: 50 μM in 100 mM TRIS buffer, 150 mM NaCl, 0.5% DMSO, pH 7.5
Excerpt: (§6) To confirm that the preference for the Λ-configuration is retained in solution, circular dichroism (CD) spectroscopy was used to probe the ligand-to-metal charge transfer (LMCT) band (Fig. 8(a)). The minimum and maximum of the region of the LMCT band at approximately 408 nm and 595 nm, respectively, are indicative of the Λ-configuration[29], with no CD signal observed in the absence of either the protein or ligand, confirming that the protein selectively binds the Λ-configuration.
(§7) The Y228F mutants gave no signal, confirming a lack of Λ-configuration induction, which may indicate a lack of ligand binding. […] Complexes of H227L and H227A were then prepared with all four Fe-n-Lic complexes.
(§8) Solutions of wild type CeuE and mutant proteins were diluted to 5 × 10^−5 M in buffer containing 150 mM NaCl and 0.11 M Tris, adjusted to pH 7.5. […]
(§9) Spectra were recorded using a solution containing 880 μL 0.11 M Tris pH 7.5, 150 mM NaCl buffer, 100 μL (Fe(III)-n-Lic (n = 4, 5, 6, 8) NTA solution and 20 μL to 5 × 10^−5 M CeuE, resulting in a 50:1 excess of ligand to ensure full binding.
(§10) The spectra were recorded from 300–700 nm and buffer subtracted (data pitch […], scan speed 100 nm min^−1, response 2 seconds, bandwidth 2 nm, path length 1 cm). The spectra were recorded 5 times and averaged.

CeuE mutant H227L [5] = molecular target: T2, CeuE mutant H227L; assay: Circular dichroism of LMCT band, mutant H227L; assay type: binding; conditions: 50 μM in 100 mM TRIS buffer, 150 mM NaCl, 0.5% DMSO, pH 7.5
Excerpt: as §6, §7, §8, §9, §10

CeuE mutant H227A [6] = molecular target: T3, CeuE mutant H227A; assay: Circular dichroism of LMCT band, mutant H227A; assay type: binding; conditions: 50 μM in 100 mM TRIS buffer, 150 mM NaCl, 0.5% DMSO, pH 7.5
Excerpt: as §6, §7, §8, §9, §10

Row | Compound | Kd (WT CeuE) | Kd (CeuE mutant H227L [1]) | Kd (CeuE mutant H227A [2]) | Kd (CeuE single mutant Y228F) | Kd [3] | Kd [4] | CD signal of Λ-configuration (LMCT band), Y228F mutants (CeuE Y228F mutants) | CD signal of Λ-configuration (LMCT band), mutant H227L (CeuE mutant H227L [5]) | CD signal of Λ-configuration (LMCT band), mutant H227A (CeuE mutant H227A [6])
1 | O=C(NCCCCNC(=O)c1cccc(O)c1O)c1cccc(O)c1O [Fe-4-Lic] | 21 ± 6 nM | 90 ± 30 nM | 131 ± 28 nM | – | – | – | – | – | –
2 | O=C(NCCCCCCCCNC(=O)c1cccc(O)c1O)c1cccc(O)c1O [Fe-8-Lic] | 58 ± 8 nM | 112 ± 21 nM | 125 ± 36 nM | – | – | – | – | – | –
3 | O=C(NCCCCCNC(=O)c1cccc(O)c1O)c1cccc(O)c1O [Fe-5-Lic] | < 10 nM | 22 ± 10 nM | 35 ± 14 nM | > 1000 nM | > 1000 nM | > 1000 nM | no signal | Λ-configuration signal was observed | Λ-configuration signal was observed
4 | O=C(NCCCCCCNC(=O)c1cccc(O)c1O)c1cccc(O)c1O [Fe-6-Lic] | 33 ± 8 nM | 65 ± 21 nM | 41 ± 7 nM | – | – | – | – | – | –
